This note sets out measurements from patent publication US9090631B2, “Process for purifying cefotiam hydrochloride” (HAINAN LINGKANG PHARMACEUTICAL CO., LTD., priority 2011, dated 2015).

Where a name gives a salt, the structure may show the parent alone.

The series is described as follows: Solubility of cefotiam hydrochloride in recrystallization solvents. It is filed as physicochemical. The text has this:
The solubility of cefotiam hydrochloride is great in water but very small in ethanol, and even smaller in acetone. A mixture of water and ethanol or a mixture of water and acetone is used as the solvent to recrystallize cefotiam hydrochloride.

As to `CN(C)CCn1nnnc1SCC1=C(C(=O)O)N2C(=O)[C@@H](NC(=O)Cc3csc(N)n3)[C@H]2SC1` [cefotiam hydrochloride, (6R,7R)-7-[[(2-amino-4-thiazolyl)acetyl]amino]-3-[[1-[2-(dimethylamino)ethyl]-1H-tetrazol-5-yl]thiomethyl]-8-oxo-5-thia-1-azabicyclo[4,2,0]oct-2-ene-2-carboxylic acid dihydrochloride], the solubility result (in ethanol) was “very small” and the solubility entry (in water) is given as “great”.
